Measured values: PubChem BioAssay AID1963436 (Molecular Pharmacology Branch, DTP, NCI, 2024)
“And” between values parts separate entries of the source, which are not always exact repeats. Equal values may be shown once.

System: OVCAR-5 complex spheroid (HUVEC/MSC), viability % T/C
Experiment: Anticancer human tumor OVCAR-5 cell line growth inhibition [Asc];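 note: spheroids exposed to agents for 7 days before readout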;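 for viability, T/C: 100% = DMSO vehicle-treated wells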
Settings: for viability, T/C: stronger effect = lower value
Summary of the method: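 Concentration series start at each agent's clinical Cmax, or at 10 microM when none is established, and drop in half-log steps; agents are applied alone or together to complex spheroids built with HUVEC and hMSC.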

[1] = curve of first compound, second compound 0.1 µM
[2] = curve of first compound, second compound 0.316 µM
[3] = curve of first compound, second compound 1 µM

## NC(=O)C(=Cn1cnc(-c2cc(C(F)(F)F)cc(C(F)(F)F)c2)n1)c1cncnc1 + CCN1C(C(=O)NC23CCC(C(=O)O)(CC2)CC3)C(c2cccc(Cl)c2F)C2(C(=O)Nc3cc(Cl)ccc32)C12CCCCC2
Curve of first compound, second compound 0.03 µM
  IC50: 299 nM
Curve of first compound, second compound 0.0949 µM
  IC50: > 300 nM
Curve of first compound, second compound 0.3 µM
  IC50: 256 nM
Curve of first compound, second compound 0.949 µM
  IC50: > 300 nM
Curve of first compound, second compound 3 µM
  IC50: 216 nM
Second compound 0.03 µM, first compound 0.000949 µM
  viability, T/C: 95.8%
Second compound 0.03 µM, first compound 0.003 µM
  viability, T/C: 85.5%
Second compound 0.03 µM, first compound 0.00949 µM
  viability, T/C: 82.1%
Second compound 0.03 µM, first compound 0.03 µM
  viability, T/C: 76.5%
Second compound 0.03 µM, first compound 0.0949 µM
  viability, T/C: 71.2%
Second compound 0.03 µM, first compound 0.3 µM
  viability, T/C: 48.1%
Second compound 0.0949 µM, first compound 0.000949 µM
  viability, T/C: 93.9%
Second compound 0.0949 µM, first compound 0.003 µM
  viability, T/C: 99.9%
Second compound 0.0949 µM, first compound 0.00949 µM
  viability, T/C: 81.9%
Second compound 0.0949 µM, first compound 0.03 µM
  viability, T/C: 67.3%
Second compound 0.0949 µM, first compound 0.0949 µM
  viability, T/C: 67.8%
Second compound 0.0949 µM, first compound 0.3 µM
  viability, T/C: 48.2%
Second compound 0.3 µM, first compound 0.000949 µM
  viability, T/C: 79.1%
Second compound 0.3 µM, first compound 0.003 µM
  viability, T/C: 95.8%
Second compound 0.3 µM, first compound 0.00949 µM
  viability, T/C: 86.9%
Second compound 0.3 µM, first compound 0.03 µM
  viability, T/C: 72%
Second compound 0.3 µM, first compound 0.0949 µM
  viability, T/C: 70.2%
Second compound 0.3 µM, first compound 0.3 µM
  viability, T/C: 46.7%
Second compound 0.949 µM, first compound 0.000949 µM
  viability, T/C: 103%
Second compound 0.949 µM, first compound 0.003 µM
  viability, T/C: 108%
Second compound 0.949 µM, first compound 0.00949 µM
  viability, T/C: 87.4%
Second compound 0.949 µM, first compound 0.03 µM
  viability, T/C: 81.4%
Second compound 0.949 µM, first compound 0.0949 µM
  viability, T/C: 66.2%
Second compound 0.949 µM, first compound 0.3 µM
  viability, T/C: 53.3%
Second compound 3 µM, first compound 0.000949 µM
  viability, T/C: 98.5%
Second compound 3 µM, first compound 0.003 µM
  viability, T/C: 96.7%
Second compound 3 µM, first compound 0.00949 µM
  viability, T/C: 80%
Second compound 3 µM, first compound 0.03 µM
  viability, T/C: 69.7%
Second compound 3 µM, first compound 0.0949 µM
  viability, T/C: 61.8%
Second compound 3 µM, first compound 0.3 µM
  viability, T/C: 45.4%

## NC(=O)C(=Cn1cnc(-c2cc(C(F)(F)F)cc(C(F)(F)F)c2)n1)c1cncnc1 + CNC(C)C(=O)NC1CN(S(=O)(=O)c2cccc(S(=O)(=O)N3CCC4CCC(C(=O)NC(c5ccccc5)c5ccccc5)N4C(=O)C(NC(=O)C(C)NC)C3)c2)CCC2CCC(C(=O)NC(c3ccccc3)c3ccccc3)N2C1=O
Curve of first compound, second compound 0.01 µM
  IC50: 222 nM
Curve of first compound, second compound 0.0316 µM
  IC50: 147 nM
[1]
  IC50: 135 nM
[2]
  IC50: 141 nM
[3]
  IC50: 124 nM
Second compound 0.01 µM, first compound 0.000949 µM
  viability, T/C: 95.4%
Second compound 0.01 µM, first compound 0.003 µM
  viability, T/C: 95.5%
Second compound 0.01 µM, first compound 0.00949 µM
  viability, T/C: 91.4%
Second compound 0.01 µM, first compound 0.03 µM
  viability, T/C: 76.5%
Second compound 0.01 µM, first compound 0.0949 µM
  viability, T/C: 63%
Second compound 0.01 µM, first compound 0.3 µM
  viability, T/C: 45.5%
Second compound 0.0316 µM, first compound 0.000949 µM
  viability, T/C: 96%
Second compound 0.0316 µM, first compound 0.003 µM
  viability, T/C: 89.2%
Second compound 0.0316 µM, first compound 0.00949 µM
  viability, T/C: 73.3%
Second compound 0.0316 µM, first compound 0.03 µM
  viability, T/C: 67.7%
Second compound 0.0316 µM, first compound 0.0949 µM
  viability, T/C: 60%
Second compound 0.0316 µM, first compound 0.3 µM
  viability, T/C: 39%
Second compound 0.1 µM, first compound 0.000949 µM
  viability, T/C: 86.6%
Second compound 0.1 µM, first compound 0.003 µM
  viability, T/C: 89.9%
Second compound 0.1 µM, first compound 0.00949 µM
  viability, T/C: 77.4%
Second compound 0.1 µM, first compound 0.03 µM
  viability, T/C: 66.3%
Second compound 0.1 µM, first compound 0.0949 µM
  viability, T/C: 57.2%
Second compound 0.1 µM, first compound 0.3 µM
  viability, T/C: 38%
Second compound 0.316 µM, first compound 0.000949 µM
  viability, T/C: 82.2%
Second compound 0.316 µM, first compound 0.003 µM
  viability, T/C: 84.1%
Second compound 0.316 µM, first compound 0.00949 µM
  viability, T/C: 69.4%
Second compound 0.316 µM, first compound 0.03 µM
  viability, T/C: 66.7%
Second compound 0.316 µM, first compound 0.0949 µM
  viability, T/C: 60%
Second compound 0.316 µM, first compound 0.3 µM
  viability, T/C: 37%
Second compound 1 µM, first compound 0.000949 µM
  viability, T/C: 85.7%
Second compound 1 µM, first compound 0.003 µM
  viability, T/C: 82.8%
Second compound 1 µM, first compound 0.00949 µM
  viability, T/C: 79.8%
Second compound 1 µM, first compound 0.03 µM
  viability, T/C: 70.6%
Second compound 1 µM, first compound 0.0949 µM
  viability, T/C: 54.9%
Second compound 1 µM, first compound 0.3 µM
  viability, T/C: 33.4%

## Cc1nc(N2CCC3(CC2)COC(C)C3N)c(CO)nc1Sc1ccnc(N)c1Cl (centres undefined)
Compound 0.00949 µM
  viability, T/C: 109% and 97.2% and 107%
Compound 0.03 µM
  viability, T/C: 99.2% and 97.7% and 99.4%
Compound 0.0949 µM
  viability, T/C: 84.9% and 85.5% and 83.2%
Compound 0.3 µM
  viability, T/C: 84.3% and 72.2% and 87.1%
Compound 0.949 µM
  viability, T/C: 77.6% and 64.7% and 77.7%
Compound 3 µM
  viability, T/C: 62% and 60.2% and 56.3%
Curve of compound
  IC50: > 3000 nM

## COc1c(OCCCN2CCOCC2)ccc2c3n(c(=NC(=O)c4cnc(N)nc4)nc12)CCN3
Compound 0.00316 µM
  viability, T/C: 85% and 93% and 92.1%
Compound 0.01 µM
  viability, T/C: 76.2% and 90.5% and 80.5%
Compound 0.0316 µM
  viability, T/C: 49.5% and 55% and 55.8%
Compound 0.1 µM
  viability, T/C: 26.1% and 29.9% and 42%
Compound 0.316 µM
  viability, T/C: 20.3% and 21.6% and 24.1%
Compound 1 µM
  viability, T/C: 9.88% and 9.15% and 11.8%
Curve of compound
  IC50: 32.4 nM and 43.9 nM and 55.3 nM

## C#Cc1c(F)ccc2cc(O)cc(-c3ncc4c(N5CC6CCC(C5)N6)nc(OCC56CCCN5CC(F)C6)nc4c3F)c12 (centres undefined) + Cc1c(S(C)(=O)=O)c(-c2cc(F)cc(N3CCN(c4ccc(NS(=O)(=O)c5ccc(NC(CCN6CCC(C(=O)OCCCP(=O)(O)O)CC6)CSc6ccccc6)c(S(=O)(=O)C(F)(F)F)c5)cc4)CC3)c2)c(-c2ccc(Cl)cc2)n1C(C)C
[1]
  IC50: 5340 nM
[2]
  IC50: 4450 nM
[3]
  IC50: 3720 nM
Curve of first compound, second compound 3.16 µM
  IC50: 2810 nM
Curve of first compound, second compound 10 µM
  IC50: 3730 nM
Second compound 0.1 µM, first compound 0.0316 µM
  viability, T/C: 96.7%
Second compound 0.1 µM, first compound 0.1 µM
  viability, T/C: 107%
Second compound 0.1 µM, first compound 0.316 µM
  viability, T/C: 102%
Second compound 0.1 µM, first compound 1 µM
  viability, T/C: 78.7%
Second compound 0.1 µM, first compound 3.16 µM
  viability, T/C: 69.3%
Second compound 0.1 µM, first compound 10 µM
  viability, T/C: 30.3%
Second compound 0.316 µM, first compound 0.0316 µM
  viability, T/C: 91.8%
Second compound 0.316 µM, first compound 0.1 µM
  viability, T/C: 98.2%
Second compound 0.316 µM, first compound 0.316 µM
  viability, T/C: 87.2%
Second compound 0.316 µM, first compound 1 µM
  viability, T/C: 80.1%
Second compound 0.316 µM, first compound 3.16 µM
  viability, T/C: 61.1%
Second compound 0.316 µM, first compound 10 µM
  viability, T/C: 24.5%
Second compound 1 µM, first compound 0.0316 µM
  viability, T/C: 89.7%
Second compound 1 µM, first compound 0.1 µM
  viability, T/C: 107%
Second compound 1 µM, first compound 0.316 µM
  viability, T/C: 90.1%
Second compound 1 µM, first compound 1 µM
  viability, T/C: 75.9%
Second compound 1 µM, first compound 3.16 µM
  viability, T/C: 56.3%
Second compound 1 µM, first compound 10 µM
  viability, T/C: 21.7%
Second compound 3.16 µM, first compound 0.0316 µM
  viability, T/C: 84.9%
Second compound 3.16 µM, first compound 0.1 µM
  viability, T/C: 99.9%
Second compound 3.16 µM, first compound 0.316 µM
  viability, T/C: 96.1%
Second compound 3.16 µM, first compound 1 µM
  viability, T/C: 69%
Second compound 3.16 µM, first compound 3.16 µM
  viability, T/C: 49.8%
Second compound 3.16 µM, first compound 10 µM
  viability, T/C: 12.9%
Second compound 10 µM, first compound 0.0316 µM
  viability, T/C: 133%
Second compound 10 µM, first compound 0.1 µM
  viability, T/C: 116%
Second compound 10 µM, first compound 0.316 µM
  viability, T/C: 118%
Second compound 10 µM, first compound 1 µM
  viability, T/C: 88.5%
Second compound 10 µM, first compound 3.16 µM
  viability, T/C: 56.6%
Second compound 10 µM, first compound 10 µM
  viability, T/C: 12.7%
